Laboratory results: patent US20240124442A1, “TRICYCLIC-AMIDO-BICYCLIC PRMT5 INHIBITORS” (AMGEN INC., priority 2021, published 2024)

Legend:
[1] = system: HCT116 WT cells; test: HCT116 WT (parent) cell line proliferation / cell viability (CellTiter-Glo, 6 days); type: cell-based; details: Homo sapiens, HCT-116, 144 h, 6 days treatment
Procedure, shortened: (§1)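 Isogenic HCT116 parent and MTAP-knockout cells in RPMI 1640 + 10% FBS, plated overnight, then exposed to compound for 6 days (37 °C, 5% CO2). Viability by CellTiter-Glo luminescence. Dilutions: 8–9 points from 1 or 10 μM (1:3), or 22 points from 10 or 50 μM (1:2); IC50 by 4-parameter or Hill −1 fit.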

[2] = system: HCT116 MTAP null cells; test: HCT116 MTAP null cell line proliferation / cell viability (CellTiter-Glo, 6 days); type: cell-based; details: 144 h; HCT116 MTAP null cells, 6 days treatment, CellTiter-Glo cell viability; read-out: HCT-116 MTAP null IC50
Procedure, shortened: as §1

| IC50 [1] [nM] | IC50 [2] [nM] | Compound |
| --- | --- | --- |
| 13100 | 120 | CN(C(=O)c1ccc2nc(N)c3cnn(C)c3c2c1)[C@@H]1COc2ccccc21 [Example 673, (S)-4-amino-N-(2,3-dihydrobenzofuran-3-yl)-N,1-dimethyl-1H-pyrazolo[4,3-c]quinoline-8-carboxamide 2,2,2-trifluoroacetate] |
| 2750 | 25 | CCOc1ccc2c(c1)OC[C@H]2N(C)C(=O)c1ccc2nc(N)c3cnn(C)c3c2c1 [Example 675, 4-amino-N-((3S)-6-ethoxy-2,3-dihydro-1-benzofuran-3-yl)-N,1-dimethyl-1H-pyrazolo[4,3-c]quinoline-8-carboxamide] |
| 9810 | 137 | CN(C(=O)c1ccc2nc(N)c3cnn(C)c3c2c1)[C@@H]1COc2cc(OC3COC3)ccc21 [Example 677, 4-amino-N,1-dimethyl-N-((3S)-6-(3-oxetanyloxy)-2,3-dihydro-1-benzofuran-3-yl)-1H-pyrazolo[4,3-c]quinoline-8-carboxamide] |
| 2780 | 29 | COCCOc1ccc2c(c1)OC[C@H]2N(C)C(=O)c1ccc2nc(N)c3cnn(C)c3c2c1 [Example 678, 4-amino-N-((3S)-6-(2-methoxyethoxy)-2,3-dihydro-1-benzofuran-3-yl)-N,1-dimethyl-1H-pyrazolo[4,3-c]quinoline-8-carboxamide] |
| 3580 | 38 | Cc1ccc2c(c1)OC[C@H]2N(C)C(=O)c1ccc2nc(N)c3cnn(C)c3c2c1 [Example 683, 4-amino-N,1-dimethyl-N-((3S)-6-methyl-2,3-dihydro-1-benzofuran-3-yl)-1H-pyrazolo[4,3-c]quinoline-8-carboxamide] |
| 1520 | 22 | COC(=O)c1ccc2c(c1)OC[C@H]2N(C)C(=O)c1ccc2nc(N)c3cnn(C)c3c2c1 [Example 685, methyl (S)-3-(4-amino-N,1-dimethyl-1H-pyrazolo[4,3-c]quinoline-8-carboxamido)-2,3-dihydrobenzofuran-6-carboxylate] |
| 11400 | 129 | CN(C(=O)c1ccc2nc(N)c3cnn(C)c3c2c1)[C@@H]1COc2cc(CO)ccc21 [Example 686, (S)-4-amino-N-(6-(hydroxymethyl)-2,3-dihydrobenzofuran-3-yl)-N,1-dimethyl-1H-pyrazolo[4,3-c]quinoline-8-carboxamide] |
| 846 | 12 | CN(C(=O)c1ccc2nc(N)c3cnn(C)c3c2c1)[C@@H]1COc2cc(Cl)ccc21 [Example 687, (S)-4-amino-N-(6-chloro-2,3-dihydrobenzofuran-3-yl)-N,1-dimethyl-1H-pyrazolo[4,3-c]quinoline-8-carboxamide 2,2,2-trifluoroacetate] |

Second part, the molecule before the results:

| Compound | IC50 [1] [nM] | IC50 [2] [nM] |
| --- | --- | --- |
| CCOc1ccc2c(c1)OC[C@H]2N(C)C(=O)c1cc2c3c(c(N)nc2cn1)COC3 [Example 674, 4-amino-N-((3S)-6-ethoxy-2,3-dihydro-1-benzofuran-3-yl)-N-methyl-1,3-dihydrofuro[3,4-c][1,7]naphthyridine-8-carboxamide] | 8610 | 156 |
| CN(C(=O)c1ccc2nc(N)c3cnn(C)c3c2c1)[C@@H]1COc2cc(OC3CCC3)ccc21 [Example 676, 4-amino-N-((3S)-6-(cyclobutyloxy)-2,3-dihydro-1-benzofuran-3-yl)-N,1-dimethyl-1H-pyrazolo[4,3-c]quinoline-8-carboxamide] | 2590 | 40 |
| Cc1ccc2c(n1)COC[C@H]2N(C)C(=O)c1ccc2nc(N)c3cnn(C)c3c2c1 [Example 679, (S)-4-amino-N,1-dimethyl-N-(2-methyl-5,8-dihydro-6H-pyrano[3,4-b]pyridin-5-yl)-1H-pyrazolo[4,3-c]quinoline-8-carboxamide] | 2270 | 26 |
| CN(C(=O)c1ccc2nc(N)c3cnn(C)c3c2c1)[C@@H]1COCc2nc(C3CC3)ccc21 [Example 684, 4-amino-N-((5S)-2-cyclopropyl-5,8-dihydro-6H-pyrano[3,4-b]pyridin-5-yl)-N,1-dimethyl-1H-pyrazolo[4,3-c]quinoline-8-carboxamide] | 227 | 6 |
| CN(C(=O)c1ccc2nc(N)c3cnn(C)c3c2c1)[C@@H]1COc2cc(C3CCOCC3)ccc21 [Example 688, (S)-4-amino-N,1-dimethyl-N-(6-(tetrahydro-2H-pyran-4-yl)-2,3-dihydrobenzofuran-3-yl)-1H-pyrazolo[4,3-c]quinoline-8-carboxamide] | 431 | 5 |
| CC(=O)N1CC=C(c2ccc3c(c2)OCC3N(C)C(=O)c2ccc3nc(N)c4c(c3c2)COC4)CC1 (stereo not shown) [Example 689, N-(6-(1-acetyl-1,2,3,6-tetrahydropyridin-4-yl)-2,3-dihydrobenzofuran-3-yl)-4-amino-N-methyl-1,3-dihydrofuro[3,4-c]quinoline-8-carboxamide] | 4540 | 101 |
